Test results from ChEMBL document CHEMBL6134843, “HDAC11 Inhibition as a Potential Therapeutic Strategy for AML: Target Identification, Lead Discovery, Antitumor Potency, and Mechanism Investigation” (J Med Chem, 2025).
Calls of active or inactive are those of the source. The rule behind the calls is not given here.

Tests used:
OCI-AML2 [1] = experiment: Antiproliferative activity against human OCI-AML2 cells assessed as cell growth inhibition incubated for 2 days by CCK-8 assay; conditions: OCI-AML2, 48 h
MV4-11 = experiment: Antiproliferative activity against human MV4-11 cells assessed as cell growth inhibition incubated for 2 days by CCK-8 assay; conditions: MV4-11, 48 h
OCI-AML2 [2] = experiment: Induction of cell apoptosis in human OCI-AML2 cells incubated for 48 hrs by Annexin V/DAPI staining based flow cytometry analysis; type: functional; conditions: dose 2.5-10 µM
OCI-AML2 [3] = experiment: Induction of ferroptosis in human OCI-AML2 cells assessed as increase in lipid peroxidation accumulation at 100 uM incubated for 48 hrs by C11-BODIPY 581/591 staining based flow cytometry analysis; type: functional, cell-based
U-937 [4] = experiment: Induction of ferroptosis in human U-937 cells assessed as increase in lipid peroxidation accumulation at 5 uM incubated for 48 hrs in presence of ferrostatin-1 by C11-BODIPY 581/591 staining based flow cytometry analysis; type: functional, cell-based
U-937 [5] = experiment: Induction of ferroptosis in human U-937 cells assessed as increase in malondialdehyde level at 5 uM incubated for 48 hrs in presence of ferrostatin-1; type: functional, cell-based
[6] = tested on: Acute myeloid leukemic cell; experiment: Induction of ferroptosis in human Acute myeloid leukemic cells assessed as upregulation of HMOX1 mRNA level by RT-qPCR analysis; type: functional, cell-based
[7] = tested on: Acute myeloid leukemic cell; experiment: Induction of ferroptosis in human Acute myeloid leukemic cells assessed as upregulation of FTH1 mRNA level by RT-qPCR analysis; type: functional, cell-based
U-937 [8] = experiment: Induction of ferroptosis in human U-937 cells assessed as increase in ferrous ion accumulation incubated for 48 hrs by RhoNox-1 staining based flow cytometry analysis; type: functional, cell-based; conditions: dose 2.5-10 µM
[9] = tested on: Acute myeloid leukemic cell; experiment: Induction of ferroptosis in human Acute myeloid leukemic cells assessed as increase in ACSL4 level by Western blot analysis; type: functional, cell-based
U-937 [10] = experiment: Induction of ferroptosis in human U-937 cells assessed as increase in lipid peroxidation at 10 uM in presence of Zinc protoporphyrin by flow cytometry analysis; type: functional, cell-based
U-937 [11] = experiment: Upregulation of Nrf2 transcription level in human U-937 cells by RNA-seq analysis; type: functional, cell-based
U-937 [12] = experiment: Upregulation of Nrf2 protein level in human U-937 cells at 2.5 to 10 uM incubated for 48 hrs by Western blot analysis; type: functional, cell-based; conditions: dose 2.5-10 µM
U-937 [13] = experiment: Upregulation of p62 […] level in human U-937 cells at 2.5 to 10 uM incubated for 48 hrs by Western blot analysis; type: functional, cell-based; conditions: dose 2.5-10 µM
MLL-AF9 = experiment: Synergistic antitumor activity against mouse MLL-AF9 at 1 to 4 uM in presence of cytarabine by CCK-8 assay; type: functional, cell-based; conditions: dose 1-4 µM
[14] = Clearance in ICR(CD-1) mouse at 5 mg/kg, iv treated up to 24 hrs by LC-MS/MS analysis; type: ADME, organism-based; conditions: in vivo
[15] = Bioavailability in ICR(CD-1) mouse at 50 mg/kg, ip treated up to 24 hrs by LC-MS/MS analysis; type: ADME, organism-based; conditions: in vivo
[16] = Antitumor activity against mouse MLL-AF9 cells allografted in female C57BL/6 mouse model assessed as GFP positive leukemic cells in peripheral blood at 50 mg/kg, ip administered once daily for 26 days in presence of cytarabine by FITC staining based analysis (reference value: 30.6 %); type: functional; conditions: time 26 day
[17] = Toxicity in female C57BL/6 mouse model assessed as increase in survival rate at 50 mg/kg, ip administered once daily in presence of cytarabine by Kaplan Mayer survival analysis; type: organism-based; conditions: in vivo

O=C(NO)c1cccc2[nH]c(C#Cc3cccc(C(F)(F)F)c3)cc12
IC50 (OCI-AML2 [1]): 8.07 µM
IC50 (MV4-11): ≤ 10 µM
Activity (OCI-AML2 [2]): Dose-dependent-effect
Activity (OCI-AML2 [3]): Active
Activity (U-937 [4]): inactive
Activity (U-937 [5]): inactive
Activity [6]: Active
Activity [7]: Active
Activity (U-937 [8]): Dose-dependent-effect
Activity [9]: Active
Activity (U-937 [10]): Active
Activity (U-937 [11]): inactive
Activity (U-937 [12]): Active
Activity (U-937 [13]): Active
Activity (MLL-AF9): Active
clearance [14]: 134 mL/min/kg
bioavailability [15]: 32%
Activity [16]: 1.74%
Activity [17]: Non-toxic
